Source: US20260092074A1, “Annelated Pyridines as Steroidogenesis Inhibitors, Preparation Method and Use Thereof” (Guangzhou Vinnocent Pharmaceutical Limited, priority 2022, published 2026)

Columns and labels:
human CYP11B1 = target: T1, human CYP11B1 (Homo sapiens, UniProt P15538); experiment: Inhibition of hCYP11B1 in transfected V79 cells; format: cell-based; details: hamster V79 cells expressing human CYP11B1; substrate 11-deoxycortisol 200 nM
T1 construct: expressed in transfected cells
T1 sequence (P15538 25-503): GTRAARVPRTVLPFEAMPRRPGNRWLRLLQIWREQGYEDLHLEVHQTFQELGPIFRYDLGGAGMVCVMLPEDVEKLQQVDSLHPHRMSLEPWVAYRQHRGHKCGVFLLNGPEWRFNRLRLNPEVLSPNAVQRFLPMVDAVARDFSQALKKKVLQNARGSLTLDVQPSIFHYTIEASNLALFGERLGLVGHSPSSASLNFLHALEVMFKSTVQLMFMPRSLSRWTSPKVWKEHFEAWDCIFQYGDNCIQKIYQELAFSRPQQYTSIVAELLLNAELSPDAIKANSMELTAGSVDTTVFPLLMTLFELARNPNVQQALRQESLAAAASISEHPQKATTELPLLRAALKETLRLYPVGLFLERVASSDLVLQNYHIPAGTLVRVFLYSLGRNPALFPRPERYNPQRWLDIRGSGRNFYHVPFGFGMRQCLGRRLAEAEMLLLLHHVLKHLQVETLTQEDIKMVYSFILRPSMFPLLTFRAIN
Method: (§1) Genes of human CYP11B1 and rat NADPH-P450 reductase were transfected into hamster V79 cells using a lentivirus vector, and stably-expressing cell lines were selected by taking advantages of the associated puromycin-resistance gene. Cultured cells were diluted and seeded in a 96-well plate with an amount of approximately 10,000 per well. After pre-incubation with suitable concentrations of the test compounds for 2 hours, 11-deoxycortisol of 200 nM was added as the substrate to initiate the catalytic reaction. After further incubation for 30 minutes, it was quenched with ethyl acetate. Subsequently, the substrate and product(s) were quantified using LC-MS/MS or HPLC at 260 nm, and the IC50 values were calculated according to inhibitory percentage.

human CYP11B2 = target: T2, human CYP11B2 (Homo sapiens, UniProt P19099); experiment: Inhibition of hCYP11B2 in transfected V79 cells; format: cell-based; details: hamster V79 cells expressing human CYP11B2; substrate 11-deoxycorticosterone 200 nM
T2 construct: expressed in transfected cells
T2 sequence (P19099 25-503): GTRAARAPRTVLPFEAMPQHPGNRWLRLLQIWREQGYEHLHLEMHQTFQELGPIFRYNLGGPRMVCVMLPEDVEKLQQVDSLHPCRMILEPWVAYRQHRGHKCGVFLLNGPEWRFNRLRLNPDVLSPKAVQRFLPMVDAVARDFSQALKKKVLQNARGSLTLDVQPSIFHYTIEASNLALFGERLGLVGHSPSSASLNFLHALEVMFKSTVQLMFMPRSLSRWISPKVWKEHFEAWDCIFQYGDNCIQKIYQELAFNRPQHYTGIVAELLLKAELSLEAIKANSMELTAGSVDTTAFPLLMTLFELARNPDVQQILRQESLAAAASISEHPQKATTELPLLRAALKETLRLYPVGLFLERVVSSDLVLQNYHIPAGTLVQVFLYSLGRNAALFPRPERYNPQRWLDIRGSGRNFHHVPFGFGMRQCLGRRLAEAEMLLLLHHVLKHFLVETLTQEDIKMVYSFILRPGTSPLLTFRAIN
Method: as §1, with “CYP11B2” for “CYP11B1”, “11-deoxycorticosterone” for “11-deoxycortisol”

SMILES	IC50 (human CYP11B1) [nM]	IC50 (human CYP11B2) [nM]
Cc1ccc(C(=O)N2CCc3c(-c4ccc(C#N)cc4)cncc32)cc1 [C33, 4-(1-(4-Methylbenzoyl)-2,3-dihydro-1H-pyrrolo[2,3-c]pyridin-4-yl)benzonitrile]	245	25
N#Cc1ccc(-c2cncc3c2SCCN3S(=O)(=O)C2CN(C(=O)c3cccc(C#N)c3)C2)cc1 [S71, 3-(3-((8-(4-Cyanophenyl)-2,3-dihydro-4H-pyrido[4,3-b][1,4]thiazin-4-yl)sulfonyl)azetidine-1-carbonyl)benzonitrile]	349	14
N#Cc1ccc(-c2cncc3c2OCCN3S(=O)(=O)C2CN(S(=O)(=O)c3cccc(C#N)c3)C2)cc1 [O115, 3-((3-((8-(4-Cyanophenyl)-2,3-dihydro-4H-pyrido[4,3-b][1,4]oxazin-4-yl)sulfonyl)azetidin-1-yl)sulfonyl)benzonitrile]	104	3.2
N#Cc1ccc(-c2cncc3c2ccn3S(=O)(=O)c2cccc([N+](=O)[O-])c2)cc1 [E13, 4-(1-((3-Nitrophenyl)sulfonyl)-1H-pyrrolo[2,3-c]pyridin-4-yl)benzonitrile]	0.5	0.3
N#Cc1ccc(-c2cncc3c2CCN3S(=O)(=O)c2cccc(C#N)c2)cc1 [C16, 3-((4-(4-Cyanophenyl)-2,3-dihydro-1H-pyrrolo[2,3-c]pyridin-1-yl)sulfonyl)benzonitrile]	0.18	1.5
N#Cc1ccc(-c2cncc3c2ccn3S(=O)(=O)c2ccc(Cl)cc2)cc1 [E8, 4-(1-((4-Chlorophenyl)sulfonyl)-1H-pyrrolo[2,3-c]pyridin-4-yl)benzonitrile]	0.6	0.1
Cc1cccc(S(=O)(=O)N2CCc3c(-c4ccc(C#N)cc4)cncc32)c1 [C8, 4-(1-(m-Tolylsulfonyl)-2,3-dihydro-1H-pyrrolo[2,3-c]pyridin-4-yl)benzonitrile]	0.25	1.4
N#Cc1ccc(-c2cncc3c2OCCN3C(=O)C2CN(c3ccc(F)cc3)C2)cc1 [O85, 4-(4-(1-(4-Fluorophenyl)azetidine-3-carbonyl)-3,4-dihydro-2H-pyrido[4,3-b][1,4]oxazin-8-yl)benzonitrile]	64	4.6
O=C(C1CN(Cc2cccc(F)c2)C1)N1CCOc2c(-c3cc4ccc(F)cc4[nH]3)cncc21 [O93, (8-(6-Fluoro-1H-indol-2-yl)-2,3-dihydro-4H-pyrido[4,3-b][1,4]oxazin-4-yl)(1-(3-fluorobenzyl)azetidin-3-yl)methanone]	4170	90
N#Cc1ccc(-c2cncc3c2OCCN3C(=O)CCc2ccc(Cl)cc2)cc1 [O49, 4-(4-(3-(4-Chlorophenyl)propanoyl)-3,4-dihydro-2H-pyrido[4,3-b][1,4]oxazin-8-yl)benzonitrile]	54	1.6
O=S(=O)(C1CCNCC1)N1CCSc2c(-c3cc4cc(Cl)ccc4o3)cncc21 [S61, 8-(5-Chlorobenzofuran-2-yl)-4-(piperidin-4-ylsulfonyl)-3,4-dihydro-2H-pyrido[4,3-b][1, 4]thiazine]	688	21.7
COc1ccc(S(=O)(=O)N2CCSc3c(-c4ccco4)cncc32)cc1 [S38, 8-(Furan-2-yl)-4-((4-methoxyphenyl)sulfonyl)-3,4-dihydro-2H-pyrido[4,3-b][1,4]thiazine]	0.7	2.1
Cn1ccc(S(=O)(=O)N2CCSc3c(-c4cc5cc(Cl)ccc5o4)cncc32)n1 [S56, 8-(5-Chlorobenzofuran-2-yl)-4-((1-methyl-1H-pyrazol-3-yl)sulfonyl)-3,4-dihydro-2H-pyrido[4,3-b][1,4]thiazine]	41	0.5
N#Cc1ccc(-c2cncc3c2ccn3S(=O)(=O)c2ccc(F)cc2)cc1 [E6, 4-(1-((4-Fluorophenyl)sulfonyl)-1H-pyrrolo[2,3-c]pyridin-4-yl)benzonitrile]	0.3	0.13
